# Experimental data from patent publication US9351915B2, “Ascorbic acid derivative composition and production method of the same, ascorbic acid derivative solution, and skin external preparation” (SHOWA DENKO K.K., priority 2012, dated 2016).
# Assays:
# [1] = Solubility test (time until solid is absent in aqueous medium); assay type: physicochemical; conditions: 20° C., 500 rpm, visual observation every 5 minutes
# Protocol: Each substance shown in Table 2 was prepared at the ratio (% by mass) indicated in Table 2 so that the total amount was 100 g. First, pure water or a mixture of pure water and methanol serving as a solvent was placed in a beaker having a capacity of 200 mL, and the beaker was immersed in a water bath which was controlled to 20° C. Then, stirring was performed at a rotational speed of 500 rpm with a stirrer chip having a diameter of 2.5 cm, and the ascorbic acid derivative was mixed at the point where the liquid temperature reached 20° C. This time point was set as the zero point and the time (min) until the solid became absent in the mixture was measured. As for the end point, visual observation was carried out every 5 minutes from the start of the stirring, and the time point at which the mixture became clear was determined as the end point.
# [2] = Storage stability test (aqueous solution, residual ratio by HPLC); assay type: physicochemical; conditions: 2% by mass ascorbic acid derivative in purified water, glass bottle with lid, 10 days at 40° C., light shielding; total of 2- and 3-phosphate salts
# Source text: The sodium salt of L-ascorbic acid-2-phosphoric acid-6-palmitate obtained in Production Example 2 and the sodium salt of L-ascorbic acid-3-phosphoric acid-6-palmitate obtained in Production Example 4 were mixed at a ratio (% by mass) shown in Table 1 to prepare ascorbic acid derivative compositions of Examples 1 to 3.
# The mixture obtained in Production Example 6 ((sodium salt of L-ascorbic acid-2-phosphoric acid-6-palmitate): (sodium salt of L-ascorbic acid-3-phosphoric acid-6-palmitate)=97.7:2.3 (mass ratio)) was used as it is as an ascorbic acid derivative composition of Example 4. […]
# The concentration of ascorbic acid derivative in each of the solutions obtained before standing (immediately after preparation) and after standing for 10 days was measured, and the “residual ratio” was determined from the results by the following formula.
# The concentration of ascorbic acid derivative contained in the solution was measured by the same measuring conditions as in the evaluation of the yield, with a high performance liquid chromatography apparatus using the Shodex SB 802.5 HQ column (manufactured by Showa Denko K.K.). […]
SMILES,Residual ratio (%) [2],other results
"CCCCCCCCCCCCCCCC(=O)OCC(O)C1OC(=O)C(OP(=O)([O-])[O-])=C1[O-].[Na+].[Na+].[Na+] [Comp. Ex. 3, Sodium salt of L-ascorbic acid-2-phosphoric acid-6-palmitate]",–,Time required for dissolution ([1]; 10% by mass ascorbic acid derivative in 90% by mass pure water): 50 min
"CCCCCCCCCCCCCCCC(=O)OCC(O)C1OC(=O)C(OP(=O)([O-])[O-])=C1[O-].[Na+].[Na+].[Na+] [Comp. Ex. 4, Sodium salt of L-ascorbic acid-2-phosphoric acid-6-palmitate]",–,Time required for dissolution ([1]; 10% by mass ascorbic acid derivative in 70% by mass pure water + 20% by mass methanol): 65 min
"CCCCCCCCCCCCCCCC(=O)OCC(O)C1OC(=O)C([O-])=C1OP(=O)([O-])[O-].[Na+].[Na+].[Na+] [Comp. Ex. 2, Sodium salt of L-ascorbic acid-3-phosphoric acid-6-palmitate]",83.9%,–
"CCCCCCCCCCCCCCCC(=O)OCC(O)C1OC(=O)C(OP(=O)([O-])[O-])=C1[O-].[Na+].[Na+].[Na+] [Comp. Ex. 1, Sodium salt of L-ascorbic acid-2-phosphoric acid-6-palmitate]",88.6%,–
